Test results: patent US9290688B2, “Alkaline microbial enhanced oil recovery” (GEO FOSSIL FUELS, LLC, priority 2011, dated 2016)

Legend:
[1] = tested on: Rhodococcus rhodochrous ATCC #53968; assay: Digestion of Red River crude oil with and without beta-oxidation inhibitors; GC of methyl esters of extracted organic acids; format: cell-based; details: for Total GC (all peaks integrated by the GC integrator): 0.31 g oil sample; for conv. To umoles FA: approximately 1.0 micromoles per 100 area units; for Cal. AN (calculated acid number): estimated from GC areas
Method: (§1) An oil degrading microorganism was used to evaluate the use of chemical inhibitors to slow the utilization of hydrocarbons in petroleum. In a non-limiting example, three different chemical compounds that have been reported to inhibit beta-oxidation were tested in oil and culture medium on a petroleum sample with a strain of Rhodococcus rhodochrous ATCC #53968 in m9 minimal medium. To test the ability of each chemical inhibitor to slow the consumption of fatty acids a culture of bacteria was grown on a crude oil sample for a period of three days with crude petroleum oil as the only carbon source. Four separate flasks were set up, each with an oil to aqueous media ratio of 1 to 5 (10 ml of crude oil to 50 ml of culture medium). Each of the three chemical inhibitors was added to a separate flask and a fourth flask was allowed to digest without the addition of a chemical inhibitor as a control. The flasks were shaken at a room temperature of about 25° C. under aerobic conditions. The progress of the microbial digestion was monitored by the optical density at 600 nm and by visual inspection of the brown oil color in the aqueous phase. Three days after the addition of inhibitors, or a total of six days of incubation with oil, a small sample of oil (0.31 g) was removed. A second sample of the same size was remover after another 6 days. The organic acids were extracted from each oil sample with 1% NaOH in 70% ethanol. The samples were shaken vigorously for one minute. The aqueous extract material was then extracted with hexane to remove any trace of oil. The samples of extracted organic acids were then dried under vacuum and converted to methyl esters with BF3 in methanol.
The mixtures of methyl esters were analyzed by GC (gas chromatography) using a HP (Hewlett Packard) 5890 GC with an Agilent Technologies capillary column, HP-5 (crosslinked 5% PH) ME Siloxane 0.25 micrometer coating with a length of 30 meter and a column ID (internal diameter) of 0.32 mm. Helium was used as a carrier gas. Detection was by a FID detector and integration of peak areas was done with a HP 3396 integrator. The temperature program held an initial temperature of 40° C. for 1.0 minutes then increased at 15 degrees per minute to 280° C., and finally held at a temperature of 280° C. for 5 minutes. To quantify the amount of organic acids extracted by this procedure, a stock solution of 2-bromooctanoate and 2-bromohexadecanoate were added to a sample of undigested Red River crude petroleum oil and then extracted by the same procedure as the bio-digested oil samples. The average area for theses two organic acids was used to estimate the amount of organic acids in micromoles per area unit determined by the GC integrator. The number was calculated to be approximately 1.0 micromoles per 100 area units. The area units for each of the GC peaks are list in Table 2. This number was used to estimate the micromoles organic acids extracted from the oil. This estimate was used to calculate the number of mg of KOH that equaled the number of micromoles of organic acid estimated. This number is listed on the last row in Table 2 as the calculated AN (acid number) for each digestion experiment. These estimated numbers are only based on organic acids that are hydrophobic enough to stay in the oil phase and not move into the aqueous phase. Organic acids measured include the carboxylic acids made by the bacteria and that have been secreted out of the cell and have migrated back to the oil phase. They are also hydrocarbons that are small enough to be extracted into the ethanol aqueous extraction solvent. This number is likely to be less than the total acid number (TAN), a measure often used to evaluate crude petroleum for amenability to alkaline waterflooding.
The earlier eluting peaks are believed to represent methyl ester of lighter hydrocarbon carboxylic acids and the later eluting peaks are believed to represent methyl ester of the heavier organic acids. […]

[2] = tested on: Rhodococcus rhodochrous ATCC #53968; assay: Growth of bacteria on crude oil with inhibitors, optical density at 600 nm; format: cell-based
Method: as §1
Digestion with the bacteria increases the total amount of carboxylic acids in all the samples. The digestions with the chemical beta-oxidation inhibitors produce about the same or a little more total methyl ester peaks than the bacterial digestion without an inhibitor. […] The later eluting peaks increase at a faster rate with the inhibitors than without. For example, the 12 day sample with no inhibitor increase from 5.9 to 45.9 area units for peaks up to 13 minutes. The sample with the acrylic acid inhibitor has an increase of from 5.9 to 43.7 area units, which is less than without inhibitor. The later eluting peaks increase from 3.6 to 14.3 without the inhibitor, but with acrylic acid the later peak areas increase to 22.5 area units. […] After 6 days of digestion the optical density had reached 2.23 for the uninhibited digestion as compared to 0.49 for the acrylic acid inhibited sample and 1.84 for the 2-bromooctanoic acid and 2.4 for the 2-bromohexadeconoic acid. After 12 days of digestion the uninhibited sample had reached 4.0 and the acrylic acid had increased to 1.7 and 2.2 and 2.4 for the other two inhibitors. Therefore, by this experimental analysis one can determine which inhibitors increase the carboxylic acid content or the acid number of the oil fastest with the least amount of oil consumption. The oil consumption can be determined by quantitation of remaining oil or by growth of bacteria were oil is the only carbon source. It appears that all the inhibitors helped reduce the utilization of fatty acids and the consumption of oil while producing an increase in acid number.

[3] = 12 days, listed as acrylic acid

C=CC(=O)O [AA, acrylic acid]
GC peak area, retention time 4.5 ([1]; 6 days): 0.242 area units | GC peak area, retention time 5.6 ([1]; 6 days): 0.948 area units | GC peak area, retention time 6.6 ([1]; 6 days): 2.856 area units | GC peak area, retention time 7.6 ([1]; 6 days): 2.724 area units | GC peak area, retention time 8.2 ([1]; 6 days): 0.703 area units | GC peak area, retention time 8.5 ([1]; 6 days): 1.907 area units | GC peak area, retention time 9.4 ([1]; 6 days): 1.575 area units | GC peak area, retention time 10.2 ([1]; 6 days): 1.591 area units | GC peak area, retention time 11 ([1]; 6 days): 2.134 area units | GC peak area, retention time 11.5 ([1]; 6 days): 2.596 area units | GC peak area, retention time 11.7 ([1]; 6 days): 2.416 area units | GC peak area, retention time 12.3 ([1]; 6 days): 1.097 area units | GC peak area, retention time 12.5 ([1]; 6 days): 4.385 area units | GC peak area, retention time 13 ([1]; 6 days): 0.521 area units | GC peak area, retention time 13.1 ([1]; 6 days): 1.769 area units | GC peak area, retention time 13.2 ([1]; 6 days): 3.486 area units | GC peak area, retention time 13.4 ([1]; 6 days): 1.122 area units | GC peak area, retention time 13.6 ([1]; 6 days): 0.783 area units | GC peak area, retention time 13.8 ([1]; 6 days): 2.448 area units | GC peak area, retention time 14 ([1]; 6 days): 0.447 area units | GC peak area, retention time 14.2 ([1]; 6 days): 0.78 area units | SubTotal peak area, later peaks eluting after 13 minutes ([1]; 6 days): 11.356 area units | SubTotal peak area, peaks eluting before 13 minutes ([1]; 6 days): 25.173 area units | Total GC area For 1 ml ([1]; 6 days): 175 | Total of all selected peaks ([1]; 6 days): 36.529 area units | Total GC (all peaks integrated by the GC integrator) ([1]; 6 days): 54.17 area units | conv. To umoles FA ([1]; 6 days): 1.75 µmol | Cal. AN (calculated acid number) ([1]; 6 days): 0.098 mg of KOH | GC peak area, retention time 4.2 ([1]; 12 days): 0.58 area units | GC peak area, retention time 4.5 ([1]; 12 days): 1.051 area units | GC peak area, retention time 4.6 ([1]; 12 days): 1.519 area units | GC peak area, retention time 5.6 ([1]; 12 days): 2.754 area units | GC peak area, retention time 6.6 ([1]; 12 days): 7.835 area units | GC peak area, retention time 7.6 ([1]; 12 days): 5.761 area units | GC peak area, retention time 8.2 ([1]; 12 days): 0.558 area units | GC peak area, retention time 8.5 ([1]; 12 days): 3.369 area units | GC peak area, retention time 9.4 ([1]; 12 days): 0.747 area units | GC peak area, retention time 10.2 ([1]; 12 days): 0.588 area units | GC peak area, retention time 11 ([1]; 12 days): 1.736 area units | GC peak area, retention time 11.5 ([1]; 12 days): 2.968 area units | GC peak area, retention time 11.7 ([1]; 12 days): 3.716 area units | GC peak area, retention time 12.3 ([1]; 12 days): 2.722 area units | GC peak area, retention time 12.5 ([1]; 12 days): 6.208 area units | GC peak area, retention time 12.7 ([1]; 12 days): 1.6421 area units | GC peak area, retention time 13 ([1]; 12 days): 1.99 area units | GC peak area, retention time 13.1 ([1]; 12 days): 2.209 area units | GC peak area, retention time 13.2 ([1]; 12 days): 4.801 area units | GC peak area, retention time 13.4 ([1]; 12 days): 3.72 area units | GC peak area, retention time 13.6 ([1]; 12 days): 2.005 area units | GC peak area, retention time 13.8 ([1]; 12 days): 2.512 area units | GC peak area, retention time 14 ([1]; 12 days): 2.548 area units | GC peak area, retention time 14.2 ([1]; 12 days): 2.779 area units | SubTotal peak area, later peaks eluting after 13 minutes ([1]; 12 days): 22.564 area units | SubTotal peak area, peaks eluting before 13 minutes ([1]; 12 days): 43.754 area units | Total GC area For 1 ml ([1]; 12 days): 291 | Total of all selected peaks ([1]; 12 days): 66.318 area units | Total GC (all peaks integrated by the GC integrator) ([1]; 12 days): 90.15 area units | conv. To umoles FA ([1]; 12 days): 2.91 µmol | Cal. AN (calculated acid number) ([1]; 12 days): 0.16 mg of KOH | SubTotal peak area, later peaks eluting after 13 minutes [1, 3]: 22.5 area units | SubTotal peak area, peaks eluting before 13 minutes [1, 3]: 43.7 area units | optical density ([2]; after 6 days of digestion, crude oil only carbon source): 0.49 | optical density ([2]; after 12 days of digestion): 1.7
